The source of these data is PMC11512107, “Structural and biochemical analysis of ligand binding in yeast Niemann–Pick type C1–related protein” (Life Science Alliance, 2024).

The target of data set [1] is T1, NTD of NCR1 (Saccharomyces cerevisiae, UniProt Q12200).
T1 construct: residues 1–249, UniProt: Q12200; thrombin cleavage site (C); deca-histidine tag (C, cleaved yes); made in house; host or cells: Saccharomyces cerevisiae strain DSY-5
Put plainly: Competitive binding assays of edelfosine and NBD-Sph to the NTD. The source says: Edelfosine is a synthetic lysophospholipid with cytotoxic antifungal effects. […] To investigate this, two competitive binding assays with edelfosine and NBD-Sph were designed (Fig 4). For the first assay, the NTD was saturated by NBD-Sph and the addition of edelfosine led to the exchange of the NTD-bound substrate, causing a drop in NBD-Sph fluorescence by about 50% (Fig 4A). […] To further evaluate the capability of NBD-Sph to participate in micelle formation, each emission spectrum was normalized with varying concentrations of edelfosine (Fig 4B). […] The shift in the wavelength of the emission peaks indicates a change in the environment of the fluorophore ([48], [49], [50]), likely indicating the transition of NBD-Sph from being free in solution to being incorporated into mixed micelles with edelfosine. Initially, emission peaks at ∼530 nm are observed, assigned to be NTD and NBD-Sph complexes (Fig 4C). […] Similarly, for binding of substrates at higher concentrations than their CMC, this binding assay is rather complex because of edelfosine exceeding its CMC. […] Because of these restrictions, the inhibitory constant for edelfosine is referred to as apparent, rather than a real, inhibitor constant (KI).
Based on the above observations, fixed amounts of edelfosine were added to NBD-Sph before titrating with the NTD in the second assay (Fig 4D).
For measuring the ability of edelfosine to outcompete NBD-Sph, 1 μM NBD-Sph and 1 μM NTD were mixed to form the interaction complex before adding increasing amounts of edelfosine. As a control, edelfosine was titrated into a cuvette containing exclusively NBD-Sph in buffer. To measure the competitive binding between NBD-Sph and edelfosine, 1 μM NBD-lipid in Tris buffer was mixed with either 0.1, 0.5, or 0.7 μM edelfosine in the sample cuvette before titration with the NTD.
Before determination of dissociation constants, the measurements were normalized. The protein–lipid binding measurements were normalized to the highest intensity in each dataset. For the competition assay, the data were normalized to the lowest intensity in the dataset to be able to fit all data to Equation (1), the full model for one-site binding for the saturated fraction, f ([27]):(1) RL/Rt=Rt+KD+Lt-Rt+KD+Lt^2-4⋅Rt⋅Lt/2⋅Rt=f
To determine the dissociation constant of edelfosine (referred to as KI) in the competition assay, it can be assumed that the binding is simple and that all added ligand is bound. In this case, the IC50 can be used to calculate a KI using Equation (2) on normalized data:(2) KI=IC50⋅KD/KD+L
The KD is the dissociation constant of the ligand, [L] is the concentration, and IC50 is the concentration of the inhibitor, where half of the ligand is inhibited.

The nature of data set [2]: CMC measurement of edelfosine with Sudan Black B absorbance. The format is physicochemical. Particulars: MES buffer pH 5.5, Sudan Black B absorbance 600 nm, n = 1. Here is the method:
As edelfosine is not fluorescent, a different approach was used to measure its CMC. The hydrophobic dye, Sudan Black B, was used to stain micelles. The absorption of solutions consisting of MES buffer, Sudan Black, and increasing concentrations of edelfosine was measured using a spectrophotometer (Hitachi U-2010).
To determine the CMC, the sigmoid curve was fitted and adjusted to the normalized data: f(x)=l/1+e^−k⋅(x−x0)+b (3)
Here, l is the scaling of the y-axis, x0 represents the CMC, k determines the sharpness of the fitted curve, and b is the starting position on the y-axis.

The target of data set [3] is T2, NPC2 (Saccharomyces cerevisiae, UniProt Q12408).
T2 construct: residues 1–173, UniProt: Q12408; thrombin cleavage site (C); deca-histidine tag (C, cleaved yes); made in house; host or cells: Saccharomyces cerevisiae strain DSY-5
T2 sequence (Q12408 22-173): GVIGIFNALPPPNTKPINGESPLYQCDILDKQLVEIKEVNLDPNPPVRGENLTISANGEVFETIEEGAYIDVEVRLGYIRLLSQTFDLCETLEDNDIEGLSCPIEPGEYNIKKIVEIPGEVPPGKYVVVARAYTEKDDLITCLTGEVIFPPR
Put plainly: In vitro liposome crosslinking assay of pac-lipids with NPC2. In kind it is binding. Here is the method:
To compare with the interaction profile of the NTD, crosslinking assays were also performed with purified, delipidated NPC2 (Fig S4A and B). […] NPC2 crosslinks well with all tested pac-lipids but, as for the NTD, most strongly with pacChol (+UV/−UV ratio = 1.91). Robust and consistent crosslinking with pacSph (+UV/−UV ratio = 1.64), pacCer (+UV/−UV = 1.67), and pacPC (+UV/−UV = 1.63) were observed. The crosslinking efficiency for cholesterol and sphingosine analogs was higher for the NTD, whereas crosslinking with ceramide and PC analogs seemed stronger with NPC2.
Lipids from stock vials were dissolved in chloroform and mixed at the desired molar ratio. For in vitro crosslinking, most liposomes consisted of 88.5 mol% DOPC as carrier lipid, 10 mol% DOPS, and 1.5 mol% respective pac-lipid. The pac-lipids were incorporated into liposomes at low concentrations (1.5 mol%) to ensure homogenous distribution and avoid micelle formation. The solvent was evaporated in a rotary evaporator (Hei-VAP Core, Heidolph) for 30 min at 42°C at 150 rpm to create a thin lipid film. Lipid films were hydrated with filtered and degassed PBS (137 mM NaCl, 2.7 mM KCl, 10 mM Na2HPO4, 1.8 mM KH2PO4, pH 7.4). Solutions of hydrated lipids (with a total lipid concentration of 2 mM) were subjected to five freeze–thaw cycles in liquid nitrogen and warm water (42°C) to facilitate breakup of large structures and support formation of smaller multilamellar vesicles. Lipid solutions were stored at −20°C. Before use, liposomes were extruded by passing 20x through a 100-nm pore size polycarbonate filter (Nuclepore; Whatman) using a hand extruder (Avanti Polar Lipids). Extruded liposomes were stored at 4°C, protected from light, and used within 1–2 d.
Extruded liposomes were diluted in PBS until a final lipid concentration of 60 μM, including 1 μM pac-lipid. Purified proteins were added until a final concentration of 1.5 μM in a reaction volume of 100 μl. Protein–liposome mixtures were incubated in 0.5-ml Eppendorf tubes for 30 min at 37°C at 400 rpm (Comfort thermomixer, Eppendorf), then crosslinked (or not) by exposure to 365-nm UV light for 15 min at 4°C using a 100-W mercury lamp (Blak-Ray B-100AP). After crosslinking, the click reaction was performed by adding 0.7 μl of freshly prepared click mix into the sample tubes. The final concentrations of click reagents in sample tubes were 80 μM CuSO4 (Merck), 3 μM TBTA (Merck), 3 μM AF647-picolyl azide (Jena Bioscience), and 80 μM ascorbic acid (Merck). Fresh stock of ascorbic acid solution in water was prepared every time and added to the click mix immediately before starting the click reaction. Click reactions were allowed to proceed for 2 h at 37°C at 400 rpm with the thermomixer. Then, samples were concentrated in a vacuum evaporator for 30 min set to 30°C and supplemented with 4x Lämmli buffer (250 mM Tris, pH 6.8, 9.2% SDS, 40% glycerol, 0.2% bromophenol blue, 100 mM DTT). Samples were boiled for 5 min at 95°C, and clicked protein–lipid complexes were resolved by SDS–PAGE. After extensive destaining in a destain solution (65% water, 25% isopropanol, and 10% acetic acid), the AF647 (a structural analog of Alexa Fluor 647) and Coomassie images were acquired using the LI-COR Odyssey imaging system. Data were evaluated by subtracting background fluorescence, followed by comparing the AF647 signal between crosslinked and non-crosslinked samples, normalized to protein loading based on Coomassie staining. The resulting values are described as +UV/−UV ratios. Statistics were calculated with the Mann–Whitney U test.

Data set [4] concerns the target T1, NTD of NCR1. Kind of data set: In vitro liposome crosslinking assay of pac-lipids with the NTD. In kind it is binding. Particulars: liposomes with 1.5 mol% pac-lipid (1 μM), 1.5 μM NTD, average ratio. From the text:
In a parallel approach, the substrate scope of the NTD and NPC2 was probed with photo-activatable and clickable (pac) lipids. Pac-lipids contain small chemical modifications for click chemistry reactions, with fluorophores such as AF647 (a structural analog of Alexa Fluor 647), and for UV-activated photo-crosslinking, respectively ([45]). In contrast to NBD-tagged lipids delivered in solution, pac-lipids such as pac-cholesterol (pacChol), pac-phosphatidylcholine (pacPC), pac-sphingosine (pacSph), and pac-ceramide (pacCer) were reconstituted in liposomal membranes (Fig 5A and B). As expected, the delipidated NTD crosslinks with pacChol (average +UV/−UV ratio = 2.11). Crosslinking of the NTD with pacSph (+UV/−UV = 1.73) and, to a lesser extent, with pacCer and pacPC (+UV/−UV = 1.40 and 1.12), respectively, was also detected (Fig 5C and D).
Lipids from stock vials were dissolved in chloroform and mixed at the desired molar ratio. […]
Extruded liposomes were diluted in PBS until a final lipid concentration of 60 μM, including 1 μM pac-lipid. […] Data were evaluated by subtracting background fluorescence, followed by comparing the AF647 signal between crosslinked and non-crosslinked samples, normalized to protein loading based on Coomassie staining. […] Statistics were calculated with the Mann–Whitney U test.

The target in data set [5] is T3, NPC2 to the NTD (Saccharomyces cerevisiae, UniProt Q12200).
T3 construct: residues 1–249, UniProt: Q12200; residues 1–173, UniProt: Q12408; deca-histidine tag (C, cleaved yes); made in house; host or cells: Saccharomyces cerevisiae strain DSY-5
Kind of data set: In vitro pac-lipid transfer assay from NPC2 to the NTD. In kind it is biochemical. Particulars: His-tagged NPC2 preloaded with soluble pac-lipid; GFP baseline, STARD3 negative control. The source says: The consistent interaction of sphingosine with both the NTD and NPC2 observed in this study inspired us to examine whether the transfer of pacSph between the two proteins could be reconstituted in vitro. To this end, a protein-to-protein sphingosine transfer assay using solubilized, free pacSph was designed (Fig 6A). […] As a control for specificity of transfer, the lipid binding domain of a mammalian STARD3 (His-STARD3-StART) was used because this protein was previously shown to interact with sphingosine in related work ([51] Preprint), but it is not located inside lysosomes and, therefore, is not expected to interact with the NTD. His-tagged NPC2, His-sfGFP, or His-STARD3-StART were immobilized on NiNTA beads, preloaded with pacSph, and incubated with the NTD. After removal of the beads, the NTD was subjected to UV crosslinking and clicked with a fluorophore, and the resulting lipid–protein complexes were visualized by SDS–PAGE.
Purified His-tagged proteins (5 μM of sfGFP, STARD3, or NPC2) were incubated with 10 μM pacSph in PBS for 60 min at 25°C at 500 rpm (Comfort thermomixer, Eppendorf). Next, the His-tagged proteins were captured on NiNTA beads and washed 5x with PBS to remove unbound pacSph. […] For data analysis, the background was subtracted and the +UV/−UV ratios were quantified for each sample as described previously. […] Statistics were calculated with the Mann–Whitney U test.

The term IC50 denotes the concentration needed to halve the response being measured.

Values joined by “and” are separate entries in the source; they are usually repeats but may differ in a detail not shown here. Identical values can stand only once. “Also recorded” adds a separate entry of the source.

T1 sequence (Q12200 20-249): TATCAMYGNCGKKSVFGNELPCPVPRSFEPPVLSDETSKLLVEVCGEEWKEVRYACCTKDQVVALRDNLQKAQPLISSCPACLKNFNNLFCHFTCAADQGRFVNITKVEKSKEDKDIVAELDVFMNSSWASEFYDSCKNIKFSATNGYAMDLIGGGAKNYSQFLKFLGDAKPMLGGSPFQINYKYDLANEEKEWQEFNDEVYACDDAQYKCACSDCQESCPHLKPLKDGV
T3 sequence (Q12200 20-249): as above

As to `CCCCCCCCCCCCCCCCCCOCC(COP(=O)([O-])OCC[N+](C)(C)C)OC` (centres unmarked) [edelfosine], in data set [1] (1 μM NBD-Sph mixed with 1 μM NTD, 0 to 4 μM edelfosine, pH 7.5, read-out: IC50 of edelfosine against NBD-Sph binding to the NTD), the IC50 is 480 nM and 500 nM. The “drop in NBD-Sph fluorescence on addition of edelfosine” value in data set [1] (NTD saturated by NBD-Sph, pH 7.5) is “about 50%”. Further, the Ki in data set [1] (calculated from IC50 with Equation (2), apparent, edelfosine exceeds its CMC, read-out: apparent inhibitor constant (KI)) is about 50 nM. In addition, the “critical micelle concentration (CMC)” value in data set [2] is 0.7 µM and 0.715 µM. Besides, in data set [3] (fivefold excess: 1 μM pac-lipid and 5 μM edelfosine in liposomes), the “effect of edelfosine on NPC2 crosslinking with pac-lipids” value is reported as “no noticeable inhibition of crosslinking; also recorded: no noticeable effect”.

On to `C#CCCCC1(CCCCCCCC/C=C/[C@H](O)[C@H](N)CO)N=N1` [pacSph], for which the “+UV/−UV ratio (crosslinking with NTD)” value in data set [4] worked out at 1.73. The “transfer of pac-lipid from NPC2 to the NTD (crosslinking with NTD)” value in data set [5] is reported as “increased crosslinking”. The “+UV/−UV ratio (crosslinking with NPC2)” value in data set [3] (liposomes with 1.5 mol% pac-lipid (1 μM), 1.5 μM NPC2) came to 1.64.
